Data taken from ChEMBL document CHEMBL1255373, “In vitro antibacterial activity of CE-156811, a novel analog derived from hygromycin A” (2008).
Values after ≈ are worked out from the molar mass of the structure shown.

Key:
Type in all cases: functional
[1] = system: Enterococcus faecium; experiment: Antibacterial activity against vancomycin-resistant Enterococcus faecium clinical isolate by broth microdilution method
[2] = system: Proteus vulgaris; experiment: Antibacterial activity against Proteus vulgaris clinical isolate by broth microdilution method
[3] = system: Enterobacter cloacae; experiment: Antibacterial activity against Enterobacter cloacae clinical isolate by broth microdilution method
[4] = system: Enterococcus faecium; experiment: Antibacterial activity against linezolid-resistant Enterococcus faecium 03B1078 by broth microdilution method
[5] = system: Staphylococcus aureus; experiment: Bacteriostatic activity against methicillin-resistant Staphylococcus aureus 01A1095 assessed as log reduction in bacterial growth at 1 to 8 times MIC after 24 hrs
[6] = system: Enterococcus faecalis; experiment: Antibacterial activity against linezolid-resistant Enterococcus faecalis 03A1128 by broth microdilution method
[7] = system: Streptococcus pneumoniae; experiment: Bacteriostatic activity against Streptococcus pneumoniae 02J1046 assessed as log reduction in bacterial growth at 1 to 8 times MIC after 24 hrs
[8] = system: Enterococcus faecium; experiment: Antibacterial activity against vancomycin-susceptible Enterococcus faecium clinical isolate by broth microdilution method
[9] = system: Streptococcus pyogenes; experiment: Antibacterial activity against Streptococcus pyogenes clinical isolate by broth microdilution method
[10] = system: Enterococcus faecium; experiment: Antibacterial activity against linezolid-resistant Enterococcus faecium 03B1073 by broth microdilution method
[11] = system: Proteus mirabilis; experiment: Antibacterial activity against Proteus mirabilis clinical isolate by broth microdilution method
[12] = system: Staphylococcus aureus; experiment: Antibacterial activity against linezolid-resistant Staphylococcus aureus 01A1220 by broth microdilution method
[13] = system: Enterococcus faecalis; experiment: Antibacterial activity against vancomycin-resistant Enterococcus faecalis clinical isolate by broth microdilution method
[14] = system: Klebsiella pneumoniae; experiment: Antibacterial activity against Klebsiella pneumoniae clinical isolate by broth microdilution method
[15] = system: Enterococcus faecium; experiment: Antibacterial activity against linezolid-resistant Enterococcus faecium 03B1074 by broth microdilution method
[16] = system: Corynebacterium sp.; experiment: Antibacterial activity against Corynebacterium sp. by broth microdilution method
[17] = system: Klebsiella aerogenes; experiment: Antibacterial activity against Enterobacter aerogenes clinical isolate by broth microdilution method
[18] = system: Enterococcus faecium; experiment: Antibacterial activity against vancomycin-resistant Enterococcus faecium 03B1022 by broth microdilution method
[19] = system: Shigella sp.; experiment: Antibacterial activity against Shigella sp. by broth microdilution method
[20] = system: Morganella morganii; experiment: Antibacterial activity against Morganella morganii clinical isolate by broth microdilution method
[21] = system: Escherichia coli; experiment: Antibacterial activity against Escherichia coli clinical isolate by broth microdilution method
[22] = system: Acinetobacter sp.; experiment: Antibacterial activity against Acinetobacter sp. by broth microdilution method
[23] = system: Streptococcus pneumoniae; experiment: Antibacterial activity against penicillin-susceptible Streptococcus pneumoniae clinical isolate by broth microdilution method
[24] = system: Streptococcus pneumoniae; experiment: Antibacterial activity against Streptococcus pneumoniae 02J1046 by broth microdilution method
[25] = system: Staphylococcus aureus; experiment: Antibacterial activity against glycopeptide-intermediate Staphylococcus aureus clinical isolate by broth microdilution method
[26] = system: Staphylococcus epidermidis; experiment: Antibacterial activity against methicillin-susceptible Staphylococcus epidermidis clinical isolate by broth microdilution method
[27] = system: Enterococcus faecalis; experiment: Antibacterial activity against […] Enterococcus faecalis ATCC 29212 by broth microdilution method
[28] = system: Klebsiella pneumoniae; experiment: Antibacterial activity against extended-spectrum beta-lactamase producing Klebsiella pneumoniae clinical isolate by broth microdilution method
[29] = system: Staphylococcus aureus; experiment: Antibacterial activity against methicillin-susceptible Staphylococcus aureus clinical isolate by broth microdilution method
[30] = system: Streptococcus pyogenes; experiment: Antibacterial activity against Streptococcus pyogenes 02C0203 by broth microdilution method
[31] = system: Streptococcus pneumoniae; experiment: Antibacterial activity against penicillin-nonsusceptible Streptococcus pneumoniae clinical isolate by broth microdilution method
[32] = system: Listeria monocytogenes; experiment: Antibacterial activity against Listeria monocytogenes clinical isolate by broth microdilution method
[33] = system: Serratia marcescens; experiment: Antibacterial activity against Serratia marcescens clinical isolate by broth microdilution method
[34] = system: Salmonella sp.; experiment: Antibacterial activity against Salmonella sp. by broth microdilution method
[35] = system: Staphylococcus aureus; experiment: Antibacterial activity against methicillin-resistant Staphylococcus aureus 01A1095 by broth microdilution method
[36] = system: Burkholderia cepacia; experiment: Antibacterial activity against Burkholderia cepacia clinical isolate by broth microdilution method
[37] = system: Citrobacter koseri; experiment: Antibacterial activity against Citrobacter diversus clinical isolate by broth microdilution method
[38] = system: Providencia rettgeri; experiment: Antibacterial activity against Providencia rettgeri clinical isolate by broth microdilution method
[39] = system: Staphylococcus aureus; experiment: Antibacterial activity against linezolid-resistant Staphylococcus aureus 01A1221 by broth microdilution method
[40] = system: Haemophilus influenzae; experiment: Antibacterial activity against Haemophilus influenzae clinical isolate by broth microdilution method
[41] = system: Enterococcus faecium; experiment: Antibacterial activity against linezolid-resistant Enterococcus faecium 03B1076 by broth microdilution method
[42] = system: Enterococcus faecium; experiment: Bacteriostatic activity against vancomycin resistant Enterococcus faecium 03B1022 assessed as log reduction in bacterial growth at 1 to 8 times MIC after 24 hrs
[43] = system: Enterococcus faecium; experiment: Antibacterial activity against linezolid-resistant Enterococcus faecium 03B1075 by broth microdilution method
[44] = system: Legionella pneumophila; experiment: Antibacterial activity against Legionella pneumophila clinical isolate by broth microdilution method
[45] = system: Enterococcus faecium; experiment: Antibacterial activity against linezolid-resistant Enterococcus faecium 03B1077 by broth microdilution method
[46] = system: Staphylococcus aureus; experiment: Antibacterial activity against methicillin-resistant Staphylococcus aureus clinical isolate by broth microdilution method
[47] = system: Moraxella catarrhalis; experiment: Antibacterial activity against Moraxella catarrhalis clinical isolate by broth microdilution method
[48] = system: Citrobacter freundii; experiment: Antibacterial activity against Citrobacter freundii clinical isolate by broth microdilution method
[49] = system: Enterococcus faecalis; experiment: Antibacterial activity against vancomycin-susceptible Enterococcus faecalis clinical isolate by broth microdilution method
[50] = system: Stenotrophomonas maltophilia; experiment: Antibacterial activity against Stenotrophomonas maltophilia clinical isolate by broth microdilution method
[51] = system: Klebsiella oxytoca; experiment: Antibacterial activity against Klebsiella oxytoca clinical isolate by broth microdilution method
[52] = system: Staphylococcus; experiment: Antibacterial activity against coagulase-negative Staphylococcus clinical isolate by broth microdilution method
[53] = system: Streptococcus pyogenes; experiment: Bacteriostatic activity against Streptococcus pyogenes 02C0203 assessed as log reduction in bacterial growth at 1 to 8 times MIC after 24 hrs
[54] = system: Pseudomonas aeruginosa; experiment: Antibacterial activity against Pseudomonas aeruginosa clinical isolate by broth microdilution method
[55] = system: Staphylococcus aureus; experiment: Antibacterial activity against […] Staphylococcus aureus ATCC 29213 by broth microdilution method
[56] = system: Neisseria sp.; experiment: Antibacterial activity against Neisseria sp. by broth microdilution method

Q: What does the source list for `C/C(=C\c1cc(F)c(OC[C@H](F)C2CC2)cc1F)C(=O)N[C@@H]1[C@H](O)[C@@H](O)[C@H]2OCO[C@H]2[C@@H]1O`?
A: MIC50 [1]: 1 µg/mL (≈ 2.11 µM); MIC90 [1]: 2 µg/mL (≈ 4.22 µM); MIC50 [2]: > 64 µg/mL; MIC90 [2]: > 64 µg/mL; MIC50 [3]: > 64 µg/mL; MIC90 [3]: > 64 µg/mL; MIC [4]: 4 µg/mL (≈ 8.45 µM); FC [5]: 1.5; MIC [6]: 16 µg/mL (≈ 33.8 µM); FC [7]: 1.5; MIC50 [8]: 1 µg/mL (≈ 2.11 µM); MIC90 [8]: 2 µg/mL (≈ 4.22 µM); MIC [9]: 0.5 µg/mL (≈ 1.06 µM); MIC50 [9]: 0.5 µg/mL (≈ 1.06 µM); MIC90 [9]: 1 µg/mL (≈ 2.11 µM); MIC [10]: 1 µg/mL (≈ 2.11 µM); MIC50 [11]: > 64 µg/mL; MIC90 [11]: > 64 µg/mL; MIC [12]: 16 µg/mL (≈ 33.8 µM); MIC50 [13]: 1 µg/mL (≈ 2.11 µM); MIC90 [13]: 2 µg/mL (≈ 4.22 µM); MIC50 [14]: > 64 µg/mL; MIC90 [14]: > 64 µg/mL; MIC [15]: 4 µg/mL (≈ 8.45 µM); MIC50 [16]: 1 µg/mL (≈ 2.11 µM); MIC90 [16]: 1 µg/mL (≈ 2.11 µM); MIC50 [17]: > 64 µg/mL; MIC90 [17]: > 64 µg/mL; MIC [18]: 1 µg/mL (≈ 2.11 µM); MIC50 [19]: > 64 µg/mL; MIC90 [19]: > 64 µg/mL; MIC50 [20]: > 64 µg/mL; MIC90 [20]: > 64 µg/mL; MIC50 [21]: > 64 µg/mL; MIC90 [21]: > 64 µg/mL; MIC50 [22]: > 64 µg/mL; MIC90 [22]: > 64 µg/mL; MIC50 [23]: 0.25 µg/mL (≈ 0.528 µM); MIC90 [23]: 0.5 µg/mL (≈ 1.06 µM); MIC [24]: 0.125 µg/mL (≈ 0.264 µM); MIC [25]: 0.125 µg/mL (≈ 0.264 µM); MIC50 [26]: 0.12 µg/mL (≈ 0.253 µM); MIC90 [26]: 0.25 µg/mL (≈ 0.528 µM); MIC [27]: 1 µg/mL (≈ 2.11 µM); MIC50 [28]: > 64 µg/mL; MIC90 [28]: > 64 µg/mL; MIC50 [29]: 0.5 µg/mL (≈ 1.06 µM); MIC90 [29]: 1 µg/mL (≈ 2.11 µM); MIC [30]: 0.25 µg/mL (≈ 0.528 µM); MIC50 [31]: 0.25 µg/mL (≈ 0.528 µM); MIC90 [31]: 0.5 µg/mL (≈ 1.06 µM); MIC [32]: 4 µg/mL (≈ 8.45 µM); MIC50 [32]: 4 µg/mL (≈ 8.45 µM); MIC90 [32]: 8 µg/mL (≈ 16.9 µM); MIC50 [33]: > 64 µg/mL; MIC90 [33]: > 64 µg/mL; MIC50 [34]: > 64 µg/mL; MIC90 [34]: > 64 µg/mL; MIC [35]: 1 µg/mL (≈ 2.11 µM); MIC50 [36]: > 64 µg/mL; MIC90 [36]: > 64 µg/mL; MIC50 [37]: > 64 µg/mL; MIC90 [37]: > 64 µg/mL; MIC50 [38]: > 64 µg/mL; MIC90 [38]: > 64 µg/mL; MIC [39]: 16 µg/mL (≈ 33.8 µM); MIC50 [40]: 4 µg/mL (≈ 8.45 µM); MIC90 [40]: 8 µg/mL (≈ 16.9 µM); MIC [41]: 8 µg/mL (≈ 16.9 µM); FC [42]: 1.5; MIC [43]: 4 µg/mL (≈ 8.45 µM); MIC50 [44]: 1 µg/mL (≈ 2.11 µM); MIC90 [44]: 2 µg/mL (≈ 4.22 µM); MIC [45]: 2 µg/mL (≈ 4.22 µM); MIC50 [46]: 0.5 µg/mL (≈ 1.06 µM); MIC90 [46]: 0.5 µg/mL (≈ 1.06 µM); MIC50 [47]: 2 µg/mL (≈ 4.22 µM); MIC90 [47]: 4 µg/mL (≈ 8.45 µM); MIC50 [48]: > 64 µg/mL; MIC90 [48]: > 64 µg/mL; MIC50 [49]: 1 µg/mL (≈ 2.11 µM); MIC90 [49]: 2 µg/mL (≈ 4.22 µM); MIC50 [50]: > 64 µg/mL; MIC90 [50]: > 64 µg/mL; MIC50 [51]: > 64 µg/mL; MIC90 [51]: > 64 µg/mL; MIC50 [52]: 1 µg/mL (≈ 2.11 µM); MIC90 [52]: 2 µg/mL (≈ 4.22 µM); FC [53]: 1.5; MIC50 [54]: > 64 µg/mL; MIC90 [54]: > 64 µg/mL; MIC [55]: 1 µg/mL (≈ 2.11 µM); MIC50 [56]: 4 µg/mL (≈ 8.45 µM); MIC90 [56]: 8 µg/mL (≈ 16.9 µM)
